Data from US20120122928A1 (priority 2010, published 2012).

Legend:
Plasmopara viticola = assay: Plasmopara test (grapevine) / protective; assay type: in vivo; conditions: young grapevine plants sprayed, active ingredient concentration 10 ppm; evaluation 6 days after inoculation; 100% = no infection
Procedure: Plasmopara Test (Grapevine)/Protective
To produce an appropriate active ingredient formulation, 1 part by weight of active ingredient is mixed with the specified amounts of solvent and emulsifier, and the concentrate is diluted with water to the desired concentration.
To test for protective efficacy, young plants are sprayed with the active ingredient formulation at the stated application rate. After the spray coating has dried on, the plants are inoculated with an aqueous spore suspension of Plasmopara viticola and then remain in an incubation cabin at approx. 20° C. and 100% relative air humidity for 1 day. Subsequently, the plants are placed in a greenhouse at approx. 21° C. and approx. 90% air humidity for 4 days. The plants are then moistened and placed in an incubation cabin for 1 day.
Evaluation follows 6 days after the inoculation. 0% means an efficacy which corresponds to that of the control, whereas an efficacy of 100% means that no infection is observed.
In this test, the following inventive compounds show, at an active ingredient concentration of 10 ppm, an efficacy of 70% or more: […]

Phytophthora infestans = assay type: in vivo; conditions: young tomato plants sprayed, active ingredient concentration of 100 (unit not given); inoculated 1 day after treatment; evaluation 7 days after inoculation; 100% = no infection
Peronospora brassicae = assay: Peronospora test (oilseed rape seeds) / seed treatment; assay type: in vivo; conditions: dose 50 g/dt, 14-day-old plants inoculated, incubated 7 days, infected leaf area, 100% = no disease
Procedure: Peronospora Test (Oilseed Rape Seeds)/Seed Treatment
The test was conducted under greenhouse conditions.
Oilseed rape seeds treated with an inventive active compound or a combination of inventive active compounds dissolved in N-methyl-2-pyrrolidone and diluted with water to the desired dose were sown in 6*6 cm vessels. The vessels contain 4 cm of a 1:1 mixture of steam-treated field soil and sand. The plants grew at 10° C.
14-day-old plants were inoculated with an aqueous spore suspension of Peronospora brassicae. The vessels containing the plants were incubated in a greenhouse at a temperature of 15° C. and a relative air humidity of 100% for 7 days.
The assessment of the test included the evaluation of the infected leaf area per plant. 0% means an efficiency corresponding to that of the control, while an efficiency of 100% means that no disease is observed.

O=C(Cn1nc(C(F)F)cc1C(F)F)N1CCC(c2nc(C3=NOC(COc4c(F)cccc4F)C3)cs2)CC1 (centres unmarked) [I-43, 2-[3,5-Bis(difluoromethyl)-1H-pyrazol-1-yl]-1-[4-(4-{5-[(2,6-difluorophenoxy)methyl]-4,5-dihydro-1,2-oxazol-3-yl}-1,3-thiazol-2-yl)piperidin-1-yl]ethanone]
% eff. (Plasmopara viticola): 100% | % eff. (Phytophthora infestans): 95% | % eff. (Peronospora brassicae): 98% | chromatographic logP (physchem; pH 2.7): 3.3 | chromatographic logP (physchem; pH 7.8): 3.23

O=C(Cn1nc(C(F)F)cc1C(F)F)N1CCC(c2nc(C3=NOC(COc4ccccc4)C3)cs2)CC1 (centres unmarked) [I-2, 2-[3,5-Bis(difluoromethyl)-1H-pyrazol-1-yl]-1-(4-{4-[5-(phenoxymethyl)-4,5-dihydro-1,2-oxazol-3-yl]-1,3-thiazol-2-yl}piperidin-1-yl)ethanone]
% eff. (Plasmopara viticola): 97% | % eff. (Phytophthora infestans): 100% | % eff. (Peronospora brassicae): 95% | chromatographic logP (physchem; pH 2.7): 3.22 | chromatographic logP (physchem; pH 7.8): 3.25

O=C(Cn1nc(C(F)F)cc1C(F)F)N1CCC(c2nc(C3=NOC(C(F)(F)c4ccccc4)C3)cs2)CC1 (centres unmarked) [I-9, 2-[3,5-Bis(difluoromethyl)-1H-pyrazol-1-yl]-1-[4-(4-{5-[difluoro(phenyl)methyl]-4,5-dihydro-1,2-oxazol-3-yl}-1,3-thiazol-2-yl)piperidin-1-yl]ethanone]
% eff. (Plasmopara viticola): 100% | % eff. (Phytophthora infestans): 100% | % eff. (Peronospora brassicae): 97% | chromatographic logP (physchem; pH 2.7): 3.41
